Experimental data from the NIST ThermoML archive (doi:10.1016/j.tca.2015.02.020).

Assay: molar heat capacity at constant pressure; xn = mol fraction of the nth substance listed
Details: 101 kPa, Small sample (50 mg) DSC

NCCO [2-aminoethan-1-ol] + O
Details	molar heat capacity at constant pressure [J/K/mol]
125.88 K, Glass, x1 = 0.19	25.67
126.5 K, Glass, x1 = 0.31	30.11
126.8 K, Glass, x1 = 0.73	44.51
126.93 K, Glass, x1 = 0.73	46.98
127.09 K, Glass, x1 = 0.23	27.92
127.56 K, Glass, x1 = 0.19	25.67
127.58 K, Glass, x1 = 0.23	28.2
128.65 K, Glass, x1 = 0.31	31.05
130.53 K, Glass, x1 = 0.19	28.03
131.15 K, Glass, x1 = 0.31	31.68
131.46 K, Glass, x1 = 0.73	45.5
131.76 K, Glass, x1 = 0.73	48.96
131.91 K, Glass, x1 = 0.31	31.68
131.92 K, Glass, x1 = 0.23	29.6
132.24 K, Glass, x1 = 0.23	29.6
132.38 K, Glass, x1 = 0.19	26.72
135.04 K, Glass, x1 = 0.73	49.95
135.19 K, Glass, x1 = 0.31	32.62
135.2 K, Glass, x1 = 0.19	30.13
135.2 K, Glass, x1 = 0.23	30.71
135.66 K, Glass, x1 = 0.19	27.77
136.91 K, Glass, x1 = 0.23	31.55
136.92 K, Glass, x1 = 0.31	33.88
137.23 K, Glass, x1 = 0.73	46.98
139.88 K, Glass, x1 = 0.19	33.27
141.59 K, Glass, x1 = 0.23	34.34
141.59 K, Glass, x1 = 0.31	36.07
141.6 K, Glass, x1 = 0.73	52.42
141.75 K, Glass, x1 = 0.23	32.67
141.75 K, Glass, x1 = 0.31	34.19
141.91 K, Glass, x1 = 0.73	47.97
142.22 K, Glass, x1 = 0.19	29.34
144.56 K, Glass, x1 = 0.19	38.25
144.88 K, Glass, x1 = 0.73	53.91
145.03 K, Glass, x1 = 0.31	35.13
145.04 K, Glass, x1 = 0.23	34.06
145.51 K, Glass, x1 = 0.19	30.91
146.28 K, Glass, x1 = 0.23	39.37
146.28 K, Glass, x1 = 0.31	40.15
146.6 K, Glass, x1 = 0.73	49.95
151.3 K, Glass, x1 = 0.73	52.92
151.46 K, Glass, x1 = 0.73	56.38
151.61 K, Glass, x1 = 0.31	39.21
154.75 K, Glass, x1 = 0.73	57.86
158.65 K, Liquid, x1 = 0.19	63.66
160.38 K, Liquid, x1 = 0.23	65.61
161.96 K, Liquid, x1 = 0.19	60.52
163.35 K, Liquid, x1 = 0.19	64.19
164.78 K, Liquid, x1 = 0.31	75.91
165.07 K, Liquid, x1 = 0.23	65.61
165.08 K, Liquid, x1 = 0.31	73.71
165.25 K, Liquid, x1 = 0.19	60.78
168.06 K, Liquid, x1 = 0.19	64.45
169.79 K, Liquid, x1 = 0.23	65.61
169.79 K, Liquid, x1 = 0.31	73.4
170.12 K, Liquid, x1 = 0.73	109.3
171.22 K, Liquid, x1 = 0.73	122.65
171.38 K, Liquid, x1 = 0.23	68.96
171.38 K, Liquid, x1 = 0.31	75.59
171.85 K, Liquid, x1 = 0.19	61.57
172.77 K, Liquid, x1 = 0.19	64.97
174.5 K, Liquid, x1 = 0.23	65.61
174.5 K, Liquid, x1 = 0.31	73.4
174.52 K, Liquid, x1 = 0.73	121.66
174.68 K, Liquid, x1 = 0.23	69.52
174.68 K, Liquid, x1 = 0.31	75.59
174.83 K, Liquid, x1 = 0.73	109.3
175.15 K, Liquid, x1 = 0.19	61.83
177.48 K, Liquid, x1 = 0.19	65.23
179.21 K, Liquid, x1 = 0.23	65.89
179.21 K, Liquid, x1 = 0.31	73.4
179.55 K, Liquid, x1 = 0.73	109.79
181.12 K, Liquid, x1 = 0.73	122.15
181.28 K, Liquid, x1 = 0.23	70.36
181.28 K, Liquid, x1 = 0.31	76.22
181.75 K, Liquid, x1 = 0.19	62.35
182.19 K, Liquid, x1 = 0.19	66.02
183.93 K, Liquid, x1 = 0.23	66.17
183.93 K, Liquid, x1 = 0.31	73.71
184.27 K, Liquid, x1 = 0.73	109.79
184.43 K, Liquid, x1 = 0.73	122.15
184.58 K, Liquid, x1 = 0.31	76.22
184.59 K, Liquid, x1 = 0.23	70.64
186.92 K, Liquid, x1 = 0.19	66.54
188.65 K, Liquid, x1 = 0.23	66.73
188.65 K, Liquid, x1 = 0.31	74.02
188.98 K, Liquid, x1 = 0.73	110.28
191.04 K, Liquid, x1 = 0.73	120.18
191.19 K, Liquid, x1 = 0.31	77.16
191.2 K, Liquid, x1 = 0.23	71.48
191.64 K, Liquid, x1 = 0.19	67.07
193.38 K, Liquid, x1 = 0.23	67.57
193.38 K, Liquid, x1 = 0.31	74.65
193.72 K, Liquid, x1 = 0.73	111.27
194.5 K, Liquid, x1 = 0.31	77.47
194.51 K, Liquid, x1 = 0.23	72.04
196.37 K, Liquid, x1 = 0.19	67.85
198.1 K, Liquid, x1 = 0.23	68.13
198.1 K, Liquid, x1 = 0.31	74.97
198.44 K, Liquid, x1 = 0.73	112.26
201.09 K, Liquid, x1 = 0.19	68.9
201.13 K, Liquid, x1 = 0.23	72.59
201.13 K, Liquid, x1 = 0.31	78.73
202.83 K, Liquid, x1 = 0.23	68.96
202.84 K, Liquid, x1 = 0.31	75.28
203.18 K, Liquid, x1 = 0.73	112.76
204.44 K, Liquid, x1 = 0.23	72.87
204.44 K, Liquid, x1 = 0.31	79.36
205.82 K, Liquid, x1 = 0.19	69.95
207.56 K, Liquid, x1 = 0.23	69.8
207.56 K, Liquid, x1 = 0.31	76.22
